These are literature values, as cited in patent publication US12054562B2, “Cell-permeable inhibitory agent and methods of use thereof in treatment of cognitive and mood disorders” (priority 2015, dated 2024).

Each structure is given as a SMILES string.

For data set [1], the target named is T1, α5GABAA receptor (Homo sapiens, UniProt P18507+P31644).
T1 sequence (P31644 32-462): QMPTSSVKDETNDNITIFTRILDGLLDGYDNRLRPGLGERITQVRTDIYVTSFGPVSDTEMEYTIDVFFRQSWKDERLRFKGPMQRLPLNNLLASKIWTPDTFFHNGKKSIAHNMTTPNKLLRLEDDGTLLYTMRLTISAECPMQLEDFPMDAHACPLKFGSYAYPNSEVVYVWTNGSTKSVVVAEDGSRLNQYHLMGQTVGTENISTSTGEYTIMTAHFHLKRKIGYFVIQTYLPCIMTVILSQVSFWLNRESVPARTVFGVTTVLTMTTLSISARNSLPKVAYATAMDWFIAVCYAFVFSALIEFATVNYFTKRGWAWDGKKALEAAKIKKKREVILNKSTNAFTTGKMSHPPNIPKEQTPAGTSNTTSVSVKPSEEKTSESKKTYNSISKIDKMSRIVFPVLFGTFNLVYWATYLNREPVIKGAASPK
T1 sequence (P18507 40-467 limits assumed): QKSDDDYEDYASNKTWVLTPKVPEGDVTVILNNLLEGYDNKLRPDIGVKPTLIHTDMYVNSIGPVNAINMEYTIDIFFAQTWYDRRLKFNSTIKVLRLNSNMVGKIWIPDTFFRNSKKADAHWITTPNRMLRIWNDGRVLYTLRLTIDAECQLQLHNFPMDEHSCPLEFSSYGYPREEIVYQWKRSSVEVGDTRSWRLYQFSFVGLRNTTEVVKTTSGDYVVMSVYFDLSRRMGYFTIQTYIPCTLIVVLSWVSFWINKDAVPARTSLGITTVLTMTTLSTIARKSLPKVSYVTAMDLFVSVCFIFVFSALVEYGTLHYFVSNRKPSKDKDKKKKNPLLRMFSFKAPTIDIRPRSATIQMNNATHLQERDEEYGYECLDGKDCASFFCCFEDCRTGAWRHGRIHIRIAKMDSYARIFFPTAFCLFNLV
T1 sequence (P28472 26-473 partner): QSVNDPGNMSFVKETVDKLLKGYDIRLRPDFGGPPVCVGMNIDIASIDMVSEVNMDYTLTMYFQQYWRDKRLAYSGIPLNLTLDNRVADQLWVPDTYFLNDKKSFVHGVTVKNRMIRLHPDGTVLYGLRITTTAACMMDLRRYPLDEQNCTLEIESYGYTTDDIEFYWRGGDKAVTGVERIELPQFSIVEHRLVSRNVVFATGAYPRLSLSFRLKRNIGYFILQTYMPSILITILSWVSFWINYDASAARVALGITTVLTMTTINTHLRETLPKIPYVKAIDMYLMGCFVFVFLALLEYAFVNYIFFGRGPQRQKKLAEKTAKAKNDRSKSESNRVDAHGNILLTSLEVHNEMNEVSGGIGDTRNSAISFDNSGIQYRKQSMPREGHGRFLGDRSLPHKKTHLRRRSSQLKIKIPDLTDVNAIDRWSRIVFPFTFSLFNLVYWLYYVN
Conditions: cited from earlier work.

The target in data set [2] is T1, α5GABAA receptor. As to conditions: cited from earlier work. This is another data set of the same source.

Take `CCOC(=O)c1ncn2c1[C@@H]1CCCN1C(=O)c1cc(OC)ccc1-2` [L-655,708]: at α5GABAA receptor [1], the “efficacy for reducing α5GABAA receptor function” value is “relatively low efficacy”. In addition, the “selectivity for α5GABAA receptors” value at α5GABAA receptor [2] is reported as 30-70 fold.
